Laboratory results taken from patent US8338565B2, “Macrocyclic compounds for inhibition of tumor necrosis factor alpha” (Ensemble Therapeutics Corporation, priority 2008, dated 2012).
Numbered stars: 1 amine (or outer) side, 2 acyl side, 3 side chain; on linkers, the order of the positions; unused ones are H or OH. Bridge positions count the residues as written; N and C are the ends. Square brackets hold non-standard residues; d marks the D form. Peptide text beside a SMILES is read from it. * marks the point of attachment. Tartaroyl(2R,3R-(OAc)2) = CC(=O)O[C@@H](C(=O)[*:1])[C@@H](OC(C)=O)C(=O)[*:2]; Phe(4-(2-MeO-Ph)) = COc1ccccc1-c1ccc(C[C@H](N)C(=O)O)cc1; Bip(2'-Me) = Cc1ccccc1-c1ccc(C[C@H](N)C(=O)O)cc1; Phe(4-CF3) = N[C@@H](Cc1ccc(C(F)(F)F)cc1)C(=O)O; Phe(4-COOH) = N[C@@H](Cc1ccc(C(=O)O)cc1)C(=O)O; Phe(2,4-Cl2) = N[C@@H](Cc1ccc(Cl)cc1Cl)C(=O)O; dPhe(3-CN) = N#Cc1cccc(C[C@@H](N)C(=O)O)c1; Bip = N[C@@H](Cc1ccc(-c2ccccc2)cc1)C(=O)O; dBip = N[C@H](Cc1ccc(-c2ccccc2)cc1)C(=O)O; dPhe(4-NH2) = Nc1ccc(C[C@@H](N)C(=O)O)cc1; Nip(3R) = O=C([C@@H]1CCCN([*:1])C1)[*:2]; Phe(4-NH2) = Nc1ccc(C[C@H](N)C(=O)O)cc1; d(hPhe) = N[C@H](CCc1ccccc1)C(=O)O; d2Thi = N[C@H](Cc1cccs1)C(=O)O; Suc = O=C(CCC(=O)[*:2])[*:1]; 3Abz = Nc1cccc(C(=O)O)c1; Boc = CC(C)(C)OC(=O)*; GABA = NCCCC(=O)O; OtBu = CC(C)(C)O*

molecular target: T1, TNFα / TNFα receptor (TNFα R1/Fc) (Homo sapiens, UniProt P01375); experiment: Inhibition of binding of TNFα to the TNFα receptor (plate ELISA competition); settings: Activity (IC50, inhibition of TNFα binding to TNFα R1/Fc), Table 2
T1 construct: purchased R&D Systems
Procedure, shortened: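 Plates were coated with TNFα at 15 nM. Test compound and 8.33 nM receptor-Fc (PBST, 2% DMSO) were first mixed in solution for 30 min at room temperature, then transferred to the plates for another 30 min. Competition was read by absorbance at 450 nm after HRP anti-human IgG Fc detection with TMB.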

T1 sequence (P01375 77-233 limits assumed, species assumed): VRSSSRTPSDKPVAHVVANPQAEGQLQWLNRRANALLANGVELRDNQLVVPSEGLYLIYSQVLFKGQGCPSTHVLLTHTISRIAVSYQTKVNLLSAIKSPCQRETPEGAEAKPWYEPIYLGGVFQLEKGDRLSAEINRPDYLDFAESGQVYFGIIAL

| Structure (SMILES) | IC50 [µM] |
| --- | --- |
| O=C1COc2ccc(cc2)C[C@H](C(=O)N[C@H](CCc2ccccc2)C(=O)O)NC(=O)[C@H](CCc2ccccc2)NC(=O)[C@@H](Cc2ccc(-c3ccccc3)cc2)NC(=O)[C@H](Cc2c[nH]c3ccccc23)N1 [Compound 737] | < 10 |
| O=C1COc2ccc(cc2)C[C@@H](C(=O)NCc2nnn[nH]2)NC(=O)[C@H](CCc2ccccc2)NC(=O)[C@@H](Cc2ccc(-c3ccccc3)cc2)NC(=O)[C@H](Cc2c[nH]c3ccccc23)N1 [Compound 746] | < 10 |
| O=C1COc2ccc(cc2)C[C@@H](C(=O)NCS(=O)(=O)O)NC(=O)[C@H](Cc2ccc(O)cc2)NC(=O)[C@@H](Cc2ccc(-c3ccccc3)cc2)NC(=O)[C@H](Cc2cccs2)N1 [Compound 566] | 10 to 30 |
| O=C1COc2ccc(cc2)C[C@@H](C(=O)N[C@@H](CO)C(=O)O)NC(=O)[C@H](CCc2ccccc2)NC(=O)[C@@H](Cc2ccc(-c3ccccc3)cc2)NC(=O)[C@H](Cc2ccncc2)N1 [Compound 556] | < 10 |

same assay, conditions: Table 2; read-out: Activity (IC50, inhibition of TNFα binding to TNFα R1/Fc)

| Structure (SMILES) | IC50 [µM] |
| --- | --- |
| CC(=O)O[C@H]1C(=O)Nc2ccc(cc2)C[C@H](C(=O)O)NC(=O)[C@@H](Cc2ccccc2)NC(=O)[C@H](Cc2ccc(Cl)cc2Cl)NC(=O)[C@@H](Cc2cccs2)NC(=O)[C@@H]1OC(C)=O [Compound 234] ([d2Thi][Phe(2,4-Cl2)][dF][dPhe(4-NH2)]-OH; linker N-4 via Tartaroyl(2R,3R-(OAc)2)) | > 100 |
| O=C(O)C[C@@H]1Cc2ccc(cc2)NC(=O)[C@H](O)[C@@H](O)C(=O)N[C@H](Cc2cccs2)C(=O)N[C@@H](Cc2ccc(-c3ccccc3)cc2)C(=O)N[C@H](Cc2ccccc2)C(=O)N1 [Compound 309] | 10 to 30 |
| O=C1CCC(=O)N[C@H](CCc2ccccc2)C(=O)N[C@@H](Cc2ccc(C(F)(F)F)cc2)C(=O)N[C@H](Cc2ccccc2)C(=O)N[C@H](C(=O)O)Cc2ccc(cn2)N1 [Compound 548] | 30 to 100 |
| O=C1CCC(=O)N[C@H](Cc2cccs2)C(=O)N[C@@H](Cc2ccc(-c3ccccc3)cc2)C(=O)N[C@H](CCc2ccccc2)C(=O)N[C@H](C(=O)N[C@H](Cc2ccccc2)C(=O)O)Cc2ccc(cc2)N1 [Compound 444] ([d2Thi][Bip][d(hPhe)][Phe(4-NH2)][dF]-OH; linker N-4 via Suc) | 30 to 100 |
| CC(C)(C)OC(=O)C[C@@H]1NC(=O)[C@H](Cc2ccc(-c3ccccc3)cc2)NC(=O)[C@@H](Cc2cccs2)NC(=O)CCC(=O)Nc2ccc(cc2)C[C@@H](C(=O)O)NC1=O [Compound 62] ([d2Thi][Bip]D(OtBu)[Phe(4-NH2)]-OH; linker N-4 via Suc) | > 100 |
| COc1ccc(C[C@@H]2NC(=O)[C@@H](Cc3cccs3)NC(=O)CCC(=O)Nc3ccc(cc3)C[C@@H](C(=O)O)NC(=O)[C@@H](Cc3ccccc3)NC2=O)cc1 [Compound 104] ([d2Thi]Y(Me)[dF][Phe(4-NH2)]-OH; linker N-4 via Suc) | > 100 |
| N#Cc1cccc(C[C@H]2NC(=O)CCC(=O)Nc3ccc(cc3)C[C@@H](C(=O)O)NC(=O)[C@@H](Cc3ccccc3)NC(=O)[C@H](Cc3ccc(C(F)(F)F)cc3)NC2=O)c1 [Compound 130] ([dPhe(3-CN)][Phe(4-CF3)][dF][Phe(4-NH2)]-OH; linker N-4 via Suc) | 10 to 30 |
| Cc1ccccc1-c1ccc(C[C@@H]2NC(=O)[C@@H](Cc3cccs3)NC(=O)CCC(=O)Nc3ccc(cc3)C[C@@H](C(=O)O)NC(=O)[C@@H](Cc3ccccc3)NC2=O)cc1 [Compound 95] ([d2Thi][Bip(2'-Me)][dF][Phe(4-NH2)]-OH; linker N-4 via Suc) | 30 to 100 |
| O=C1COc2ccc(cc2)C[C@@H](C(=O)NS(=O)(=O)c2ccccc2)NC(=O)[C@H](CCc2ccccc2)NC(=O)[C@@H](Cc2ccc(-c3ccccc3)cc2)NC(=O)[C@H](Cc2cccs2)N1 [Compound 483] | > 100 |
| O=C(O)CCNC(=O)[C@@H]1Cc2ccc(cc2)OCC(=O)N[C@@H](Cc2cccs2)C(=O)N[C@H](Cc2ccc(-c3ccccc3)cc2)C(=O)N[C@@H](CCc2ccccc2)C(=O)N1 [Compound 475] | < 10 |
| O=C(O)CCCNC(=O)[C@@H]1Cc2ccc(cc2)OCC(=O)N[C@@H](Cc2c[nH]c3ccccc23)C(=O)N[C@H](Cc2ccc(-c3ccccc3)cc2)C(=O)N[C@@H](Cc2c[nH]c3ccccc23)C(=O)N1 [Compound 721] | < 10 |
| O=C(O)[C@@H]1Cc2ccc(cc2)NC(=O)[C@H](O)[C@@H](O)C(=O)N[C@H](Cc2cccs2)C(=O)N[C@@H](Cc2ccc(-c3ccccc3)cc2)C(=O)N[C@H](Cc2ccccc2Cl)C(=O)N1 [Compound 286] | 10 to 30 |
| N[C@@H]1CC(=O)N[C@H](Cc2cccs2)C(=O)N[C@@H](Cc2ccc(-c3ccccc3)cc2)C(=O)N[C@H](Cc2ccccc2)C(=O)N[C@H](C(=O)O)Cc2ccc(cc2)NC1=O [Compound 374] | > 100 |
| O=C(O)[C@H](Cc1ccccc1)NC(=O)[C@H]1Cc2ccc(cc2)NC(=O)[C@H](O)[C@@H](O)C(=O)N[C@H](Cc2cccs2)C(=O)N[C@@H](Cc2ccc(-c3ccccc3)cc2)C(=O)N[C@H](Cc2ccccc2)C(=O)N1 [Compound 430] | 10 to 30 |
| CC(C)(C)OC(=O)NCCCC(=O)N[C@H]1CC(=O)Nc2ccc(cc2)C[C@@H](C(=O)O)NC(=O)[C@@H](Cc2ccccc2)NC(=O)[C@H](Cc2ccc(-c3ccccc3)cc2)NC(=O)[C@@H](Cc2cccs2)NC1=O [Compound 516] ({Boc-GABA}-D[d2Thi][Bip][dF][Phe(4-NH2)]-OH; lactam 1-5) | 30 to 100 |
| CC(=O)O[C@H]1C(=O)Nc2ccc(cc2)C[C@H](C(=O)N[C@@H](Cc2ccccc2)C(=O)O)NC(=O)[C@@H](CCc2ccccc2)NC(=O)[C@H](Cc2ccc(-c3ccccc3)cc2)NC(=O)[C@@H](Cc2cccs2)NC(=O)[C@@H]1OC(C)=O [Compound 409] ([d2Thi][Bip][d(hPhe)][dPhe(4-NH2)]F-OH; linker N-4 via Tartaroyl(2R,3R-(OAc)2)) | < 10 |
| COc1ccccc1-c1ccc(C[C@@H]2NC(=O)[C@@H](CCc3ccccc3)NC(=O)CCC(=O)Nc3ccc(cc3)C[C@@H](C(=O)O)NC(=O)[C@@H](Cc3ccccc3)NC2=O)cc1 [Compound 167] ([d(hPhe)][Phe(4-(2-MeO-Ph))][dF][Phe(4-NH2)]-OH; linker N-4 via Suc) | > 100 |
| O=C1CCC(=O)N[C@H](CCc2ccccc2)C(=O)N[C@@H](Cc2ccc(-c3ccccc3)cc2)C(=O)N[C@H](Cc2ccccc2)C(=O)N[C@H](C(=O)Nc2cccc(C(=O)O)c2)Cc2ccc(cc2)N1 [Compound 352] ([d(hPhe)][Bip][dF][Phe(4-NH2)][3Abz]-OH; linker N-4 via Suc) | > 100 |
| O=C1CCC(=O)N[C@H](Cc2cccs2)C(=O)N[C@@H](Cc2ccc(-c3ccccc3)cc2)C(=O)N[C@H](Cc2ccccc2)C(=O)N[C@H](C(=O)N2CCC[C@@H](C(=O)O)C2)Cc2ccc(cc2)N1 [Compound 38] ([d2Thi][Bip][dF][Phe(4-NH2)]-{Nip(3R)}; linker N-4 via Suc) | 30 to 100 |

Second part, the compound after the results:

| IC50 [µM] | Structure (SMILES) |
| --- | --- |
| > 100 | O=C1CCC(=O)N[C@H](Cc2cccs2)C(=O)N[C@H](Cc2ccc(-c3ccccc3)cc2)C(=O)N[C@@H](Cc2ccccc2)C(=O)N[C@@H](C(=O)O)Cc2ccc(cc2)N1 [Compound 503] ([d2Thi][dBip]F[dPhe(4-NH2)]-OH; linker N-4 via Suc) |
| 30 to 100 | O=C1COc2ccc(cc2)C[C@@H](C(=O)O)NC(=O)[C@H](CCc2ccccc2)NC(=O)[C@@H](Cc2ccc(-c3ccccn3)cc2)NC(=O)[C@H](Cc2ccncc2)N1 [Compound 664] |
| < 10 | O=C1COc2ccc(cc2)C[C@@H](C(=O)O)NC(=O)[C@H](Cc2ccc(-c3ccccn3)cc2)NC(=O)[C@@H](Cc2ccc(-c3ccccc3)cc2)NC(=O)[C@H](Cc2ccncc2)N1 [Compound 643] |
| > 100 | O=C1COc2ccc(cc2)C[C@@H](C(=O)O)NC(=O)[C@H](Cc2ccccc2)NC(=O)[C@@H](Cc2ccc(Br)cc2)NC(=O)[C@H](Cc2cccs2)N1 [Compound 399] |
| < 10 | O=C(O)CCNC(=O)[C@@H]1Cc2ccc(cc2)OCC(=O)N[C@@H](Cc2cccs2)C(=O)N[C@H](Cc2ccc(-c3ccccc3)cc2)C(=O)N[C@@H](Cc2ccc(O)cc2)C(=O)N1 [Compound 564] |
| < 10 | O=C1COc2ccc(cc2)C[C@@H](C(=O)N[C@@H](CCc2ccccc2)C(=O)O)NC(=O)[C@H](CCc2ccccc2)NC(=O)[C@@H](Cc2ccc(-c3ccccc3)cc2)NC(=O)[C@H](Cc2ccc(-c3ccncc3)cc2)N1 [Compound 623] |
| < 10 | O=C1COc2ccc(cc2)C[C@@H](C(=O)N[C@H](Cc2ccccc2)C(=O)O)NC(=O)[C@H](Cc2ccccc2)NC(=O)[C@H](Cc2ccc(-c3ccccc3)cc2)NC(=O)[C@H](Cc2cccs2)N1 [Compound 228] |
| > 100 | O=C1COc2ccc(cc2)C[C@@H](C(=O)O)NC(=O)[C@H](Cc2cccc(F)c2)NC(=O)[C@@H](Cc2ccc(-c3ccccc3)cc2)NC(=O)[C@H](Cc2cccs2)N1 [Compound 626] |
| < 10 | O=C1COc2ccc(cc2)C[C@@H](C(=O)O)NC(=O)[C@H](CCc2ccccc2)NC(=O)[C@@H](Cc2ccc(-c3ccccc3)cc2)NC(=O)[C@H](Cc2ccccc2)N1 [Compound 511] |
| 10 to 30 | Cn1cnc(C[C@@H]2NC(=O)COc3ccc(cc3)C[C@@H](C(=O)O)NC(=O)[C@H](CCc3ccccc3)NC(=O)[C@@H](Cc3ccc(-c4ccccc4)cc3)NC2=O)c1 [Compound 706] |
| < 10 | O=C1COc2ccc(cc2)C[C@@H](C(=O)O)NC(=O)[C@H](CCc2ccccc2)NC(=O)[C@@H](Cc2ccc(-c3ccccc3)cc2)NC(=O)[C@H](Cc2c[nH]c3ccccc23)N1 [Compound 734] |
| > 100 | COc1ccc(C[C@H]2NC(=O)COc3ccc(cc3)C[C@@H](C(=O)O)NC(=O)[C@@H](CCc3ccccc3)NC(=O)[C@H](Cc3ccc(-c4ccccc4)cc3)NC2=O)cc1 [Compound 522] |
| > 100 | O=C1CCCNC(=O)c2ccc(cc2)C[C@@H](C(=O)O)NC(=O)[C@@H](Cc2ccccc2)NC(=O)[C@H](Cc2ccc(-c3ccccc3)cc2)NC(=O)[C@@H](CCc2ccccc2)N1 [Compound 249] ([GABA][d(hPhe)][Bip][dF][Phe(4-COOH)]-OH; lactam N-5) |
